The results in this text go back to US7459450B2, “Neuropeptide receptor modulators” (Schering Corporation, priority 2004, dated 2008).

pKi: −log10 of the molar value.

The first test addresses T1, Human NPY Y1 receptors (Homo sapiens, UniProt P25929).
T1 construct: expressed in transfected cells; host or cells: CHO cells (membrane protein)
T1 sequence (P25929 1-384): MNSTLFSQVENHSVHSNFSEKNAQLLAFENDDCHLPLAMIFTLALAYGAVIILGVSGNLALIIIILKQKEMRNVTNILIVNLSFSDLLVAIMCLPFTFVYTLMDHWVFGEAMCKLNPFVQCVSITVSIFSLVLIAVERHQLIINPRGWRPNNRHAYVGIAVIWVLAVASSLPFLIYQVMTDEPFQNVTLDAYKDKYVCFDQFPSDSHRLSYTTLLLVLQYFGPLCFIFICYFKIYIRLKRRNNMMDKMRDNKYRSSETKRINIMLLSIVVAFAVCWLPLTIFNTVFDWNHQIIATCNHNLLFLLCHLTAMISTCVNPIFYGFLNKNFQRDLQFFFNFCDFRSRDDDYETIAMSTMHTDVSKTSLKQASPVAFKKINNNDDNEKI
Nature of the test: NPY Receptor Binding Assay.
Details: not given
Here is the method:
NPY Receptor Binding Assay
Human NPY Y1 receptors were expressed in CHO cells. Binding assays were performed in 50 mM HEPES, pH 7.2, 2.5 mM CaCl2, 1 mM MgCl2 and 0.1% BSA containing 5-10 μg of membrane protein and 0.1 nM […] in a total volume of 200 μl. Non-specific binding was determined in the presence of 1 μM NPY. The reaction mixtures were incubated for 90 minutes at room temperature then filtered through Millipore MAFC glass fiber filter plates which had been pre-soaked in 0.5% polyethleneimine. The filters were washed with phosphate-buffered saline, and radioactivity was measured in a Packard TopCount scintillation counter.
One may read the pKi as the negative decadic logarithm of the Ki, by convention in mol/L. Lower therefore signals a high Ki. `O=C1CN/C(=N/c2ccc(CCNc3nc4cc(Cl)c(Cl)cc4s3)cc2)S1` [Example 391]: the pKi is under 5.00. For `Cc1ccc2nc(NCCc3ccc(/N=C4/N[C@@H](CC(C)C)C(=O)S4)cc3)sc2c1` [Example 351], the negative logarithm of the Ki (pKi) is under 5.00. `CC(C)C1NC(=Nc2ccccc2CCNc2nc3ccccc3s2)SC1=O` (stereo not shown) [Example 404] gave a pKi of under 5.00. In turn, `COc1ccc2nc(NCCc3ccc(/N=C4\SC(=O)[C@@H]5CCCN45)cc3)sc2c1` [Example 347] had a pKi of under 5.00. Still for that read-out and setting: the figure for `O=C(O)C[C@@H]1N/C(=N/c2ccc(CCNc3nc4cc(Cl)c(Cl)cc4s3)cc2)SC1=O` [Example 392] is under 5.00; for `O=C1S/C(=N\c2ccc(CCNc3nc4cc(Cl)c(Cl)cc4s3)cc2)N[C@H]1Cc1ccccc1` [Example 360] it is under 5.00.

The same test, now with this note: Procedure A compounds, rated A/B/C.
The molecule `c1cc(CCNc2nc3ccccc3s2)cc(NC2=NCCS2)c1` [Example 25] gave a pKi of under 5.00.

The same test, now with this note: Procedure B compounds, rated A/B/C.
Regarding `CCC1CN(C(=O)c2ccccc2)C(Nc2ccc(CCNc3nc4ccccc4s3)cc2)=N1` (stereo not shown) [Example 33], the negative-log Ki (pKi) was under 5.00.

Still in this test, the particulars now being: Procedure C compounds, rated A/B/C.
The molecule `CCOC(=O)N1C(=O)CN=C1Nc1ccc(CCNc2nc3ccccc3s2)cc1` [Example 36] had a negative logarithm of the Ki (pKi) of under 5.00.

Turning to `O=C(O)C[C@@H]1N=C(Nc2ccc(CCNc3nc4ccccc4s3)cc2)N(C(=O)c2ccccc2)C1=O` [Example 49], the negative logarithm of the Ki (pKi) was under 5.00.

Still in this test, the particulars now being: Procedure E compounds, rated A/B/C.
Molecule `Cc1cccc2sc(NCCc3ccc(/N=C4/NCCCS4)cc3)nc12` [Example 209] had a negative logarithm of the Ki (pKi) of under 5.00.

`CC1CN/C(=N/c2ccc(CCNc3nc4ccc(Cl)cc4s3)cc2)S1` (stereo not shown) [Example 331] gave a pKi of under 5.00. The molecule `COc1cccc2sc(NCCc3ccc(/N=C4\SC5Cc6ccccc6[C@@H]5N4C4CC4)cc3)nc12` (stereo partly shown) [Example 229] showed a pKi of under 5.00.

As for `CC[C@@H]1CS/C(=N\c2ccc(CCNc3nc4ccccc4s3)cc2)N1` [Example 269], the negative-log Ki (pKi) was over 6.00. As to `C[C@@H]1CS/C(=N\c2ccc(CCNc3nc4ccccc4s3)cc2)N1` [Example 268], the negative logarithm of the Ki (pKi) is over 6.00.

`CC(C)C1CCSC(Nc2ccc(CCNc3nc4ccccc4s3)cc2)=N1` (stereo not shown) [Example 334] had a pKi of over 6.00.

For the molecule `c1ccc2c(CC3CSC(Nc4ccc(CCNc5nc6ccccc6s5)cc4)=N3)cccc2c1` (stereo not shown) [Example 336], the negative logarithm of the Ki (pKi) was under 5.00. `COc1ccc2nc(NCCc3ccc(/N=C4/NC5(CCCC5)CS4)cc3)sc2c1` [Example 220] had a pKi of 5.00 to 6.00. Molecule `Fc1ccc2nc(NCCc3ccc(/N=C4/NC5(CCCC5)CS4)cc3)sc2c1` [Example 169] had a pKi of over 6.00. Same read-out and setting: in the case of `CCCC1CS/C(=N\c2ccc(CCNc3nc4ccc(Cl)cc4s3)cc2)N1` (stereo not shown) [Example 105] it was over 6.00. In turn, `c1ccc(/N=C2\N[C@H]3c4ccccc4CC3S2)c(CCNc2nc3ccccc3s2)c1` (stereo partly shown) [Example 183] gave a pKi of under 5.00. `Cc1ccc2nc(NCCc3ccc(/N=C4\SCCN4C)cc3)sc2c1` [Example 86]: the pKi was under 5.00.

Molecule `c1cc(CCNc2nc3ccccc3s2)cc(/N=C2\NCCCS2)c1` [Example 69] gave a pKi of under 5.00.

Molecule `CCCC1CS/C(=N\c2ccc(CCNc3nc4ccc(C)cc4s3)cc2)N1` (stereo not shown) [Example 91] had a negative-log Ki (pKi) of over 6.00. For the molecule `CCCC1CS/C(=N\c2ccc(CCNc3nc4ccccc4s3)cc2)N1` (stereo not shown) [Example 264], the negative-log Ki (pKi) is over 6.00. `CC1CN/C(=N/c2ccc(CCNc3nc4ccccc4s3)cc2)S1` (stereo not shown) [Example 193]: the pKi was under 5.00.

The same test, now with this note: Procedure G compounds, rated A/B/C.
As to `c1ccc(-c2csc(Nc3ccc(CCNc4nc5ccccc5s4)cc3)n2)cc1` [Example 423], the pKi was under 5.00. In turn, `c1ccc2cc(-c3csc(Nc4ccc(CCNc5nc6ccccc6s5)cc4)n3)ccc2c1` [Example 422] showed a pKi of under 5.00. For the molecule `COc1ccc(-c2csc(Nc3ccc(CCNc4nc5ccccc5s4)cc3)n2)cc1` [Example 436], the pKi is under 5.00.

Still in this test, the particulars now being: Procedure H compounds, rated A/B/C.
Regarding `CCCCC1SC(Nc2ccc(CCNc3nc4ccccc4s3)cc2)=NC1=O` (stereo not shown) [Example 442], the negative logarithm of the Ki (pKi) was under 5.00.

Turning to `O=C1CSC(Nc2ccc(CCNc3nc4ccccc4s3)cc2)=N1` [Example 439], the negative logarithm of the Ki (pKi) was under 5.00.
